Source: patent US12590118B2, “Salt and crystal form of steroid derivative regulator” (Shanghai Hansoh Biomedical Co., Ltd., priority 2019, dated 2026)
Converted amounts (≈) assume the structure as drawn.

Tests used:
[1] = Solubility experiment (thermodynamic solubility at 37° C.); type: physicochemical; conditions: for solubility at 24 h: 37 °C, thermodynamic from solid
Description: The solubility of the free base and salt of the compound in water, Fasted State Simulated Gastric Fluid (FaSGF), Fasted State Simulated Intestinal Fluid (FaSSIF) and Fed State Simulated Intestinal Fluid (FeSSIF) was compared, so as to provide a basis for evaluating the druggability of the crystal form and salt.
About 2 to 3 mg of crystal forms I, II and III of the free base of Example 40 were weighed, suspended in 1 mL of Fasted State Simulated Gastric Fluid (FaSSGF), Fasted State Simulated Intestinal Fluid (FaSSIF), Fed State Simulated Intestinal Fluid (FeSSIF) and pure water respectively, and shaked for 24 hours. Thermodynamic solubility of the compound at 37° C. was determined using HPLC by external standard method.

[2] = Hygroscopicity experiment (DVS); type: physicochemical
Description: The hygroscopicity of crystal forms I, II and III of the free base of Example 40 under different relative humidity conditions was investigated, so as to provide a basis for screening of the crystal form and salt of the compound, production and storage.
10 to 15 mg of the free base of Example 40 was placed in the sample chamber of DVS. DVS was carried out, and the vapour sorption weight gain percentage of the compound at 80% RH was recorded at the same time.

[3] = Competitive experiment of different crystal forms of the free base; type: physicochemical; conditions: 40° C.
Description: The stability among crystal forms I, II and III of the free base of Example 40 was investigated, so as to select the stable crystal form.
Multiple portions of about 20 mg of crystal forms I, II and III of the free base of Example 40 were accurately weighed, and mixed in pairs in equal amounts. Methyl tert-butyl ether and n-heptane were added respectively, and the resulting mixture was stirred at 40° C. for 7 days. The mixture was centrifuged at high speed, the supernatant was removed, and the resulting solid precipitate was vacuum dried in an oven at 40° C. and characterized by XRPD.

[4] = target: T1, human GABAA receptor α1, β2 and γ2 subunit (HEK293T cell line) (Homo sapiens, UniProt P14867+P47870); assay: Positive regulatory effect on GABAA receptor, manual patch clamp; type: cell-based; conditions: whole-cell current, 1 μM GABA
T1 construct: expressed in transfected cells
T1 sequence (P14867 28-456): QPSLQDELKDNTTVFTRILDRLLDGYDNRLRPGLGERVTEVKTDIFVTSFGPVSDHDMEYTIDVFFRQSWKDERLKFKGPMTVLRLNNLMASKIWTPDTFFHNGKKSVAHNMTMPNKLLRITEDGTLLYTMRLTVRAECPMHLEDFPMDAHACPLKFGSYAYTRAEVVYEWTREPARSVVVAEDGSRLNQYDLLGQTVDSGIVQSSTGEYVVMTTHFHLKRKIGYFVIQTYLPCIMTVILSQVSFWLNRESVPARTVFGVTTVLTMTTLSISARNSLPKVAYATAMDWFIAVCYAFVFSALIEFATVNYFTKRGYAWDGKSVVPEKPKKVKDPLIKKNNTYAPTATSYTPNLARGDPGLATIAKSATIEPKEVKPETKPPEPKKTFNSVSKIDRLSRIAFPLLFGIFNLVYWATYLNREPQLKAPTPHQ
T1 sequence (P47870 25-512 limits assumed): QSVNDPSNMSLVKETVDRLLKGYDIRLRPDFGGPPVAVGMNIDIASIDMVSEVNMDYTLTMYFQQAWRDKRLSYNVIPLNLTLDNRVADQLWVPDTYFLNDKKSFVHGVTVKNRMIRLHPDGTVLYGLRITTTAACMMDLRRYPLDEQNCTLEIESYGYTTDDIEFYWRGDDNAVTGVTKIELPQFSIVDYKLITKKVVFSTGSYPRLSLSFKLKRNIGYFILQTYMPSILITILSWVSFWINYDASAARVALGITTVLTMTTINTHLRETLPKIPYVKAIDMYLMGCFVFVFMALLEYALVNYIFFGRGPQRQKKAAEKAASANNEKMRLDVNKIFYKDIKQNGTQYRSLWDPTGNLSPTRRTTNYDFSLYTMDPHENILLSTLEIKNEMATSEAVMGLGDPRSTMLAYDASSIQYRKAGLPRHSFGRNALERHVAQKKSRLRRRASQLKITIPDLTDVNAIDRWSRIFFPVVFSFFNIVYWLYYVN
T1 sequence (P18507 40-475 partner): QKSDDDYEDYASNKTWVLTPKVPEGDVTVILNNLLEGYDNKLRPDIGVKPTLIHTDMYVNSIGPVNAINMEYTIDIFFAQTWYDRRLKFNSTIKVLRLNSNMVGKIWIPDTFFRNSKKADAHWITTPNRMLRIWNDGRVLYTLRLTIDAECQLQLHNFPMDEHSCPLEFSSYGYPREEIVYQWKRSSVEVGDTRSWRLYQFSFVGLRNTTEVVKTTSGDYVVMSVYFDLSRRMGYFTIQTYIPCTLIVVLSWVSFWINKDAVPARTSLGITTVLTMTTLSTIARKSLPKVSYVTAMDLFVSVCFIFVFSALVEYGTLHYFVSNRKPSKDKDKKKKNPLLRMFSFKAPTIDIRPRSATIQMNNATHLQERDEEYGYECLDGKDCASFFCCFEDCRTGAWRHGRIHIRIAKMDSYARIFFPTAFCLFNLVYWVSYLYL
Description: The objective of this test example is to determine the positive regulatory effect of the compound on GABAA receptor by the electrophysiological manual patch clamp method.
Manual patch clamp system HEKA EPC10 USB signal amplifier and digital conversion system (purchased from HEKA Electronics, Germany), centrifuge (Eppendorf, etc.), carbon dioxide incubator (purchased from Thermo, etc.), biological safety cabinet (Thermo, etc.), pipette (purchased from Eppendorf, etc.).
The cells were grown in a culture dish with DMEM medium (purchased from Invitrogen), and cultured in an incubator at 37° C. and 5% CO2. Before the electrophysiological experiment, the cells were transferred to a round glass slide placed in the culture dish, and grown in the same culture medium and under the same culture condition as above. The density of cells on each round glass slide should meet the requirement that most cells were independent and individual.
Each test compound was diluted in gradient with DMSO to obtain a stock solution, which was then diluted with extracellular fluid by 1,000-fold to obtain the final test concentration. The final concentration of DMSO in the compound solution with each concentration was 0.1%. The experiment used the manual patch clamp system HEKA EPC10 USB signal amplifier and digital conversion system for whole cell current recording. The round glass slide with HEK293T GABAA cells grown on the surface was taken out of the culture dish, and placed in the electrophysiological recording tank under the inverted microscope. The recording tank was continuously perfused with extracellular fluid. During the experiment, the whole-cell current recording technology was used to record the chloride current of the GABAA channel. 1 μM GABA was used to activate the chloride current of the GABAA channel of each cell as an initial control. 1 μM GABA acted on the cell through the drug perfusion system to induce the chloride current of the GABAA channel, the action time was about 3 to 5 seconds, and the current value was used as the initial control value. The test concentration of compound was perfused and incubated for 2 to 5 minutes. […] GABA solution (mixed with the test concentration of compound) was given to the cells to observe the enhancement effect of the test compound on the current induced by 1 μM GABA. When the cell state was stable, the test compound acted on the same cell from low to high concentration to record the enhancement effect of the induced current.
The experimental data was analyzed by HEKA Patchmaster, Microsoft Excel and the data analysis software provided by Graphpad Prism.

Row | Compound | solubility at 24 h ([1]; FaSSGF (Fasted State Simulated Gastric Fluid), fassgf or other biorelevant, FaSSGF) | solubility at 24 h ([1]; FaSSIF (Fasted State Simulated Intestinal Fluid), fassif) | solubility at 24 h ([1]; FeSSIF (Fed State Simulated Intestinal Fluid), fessif) | solubility compared among the three crystal forms (in words) ([1]; four media) | solubility at 24 h ([1]; pure water, water) | hygroscopicity (in words) ([2]; DVS) | Hygroscopicity (25° C./80% RH) ([2]; DVS vapour sorption weight gain at 80% RH, 25° C.) | solubility in n-heptane (in words) [3] | EC50 [4]
1 | C[C@@H]1C[C@H](C(=O)Cn2ccc(C#N)n2)[C@@]2(C)CC[C@H]3[C@@H](CC[C@@H]4C[C@](C)(O)CC[C@@H]43)[C@H]12 [Crystal form I, 1-(2-((3R,5R,8R,9R,10S,13S,14S,15R,17S)-3-Hydroxy-3,13,15-trimethylhexadecahydro-1H-cyclopenta[a]phenanthren-17-yl)-2-oxoethyl)-1H-pyrazole-3-carbonitrile] | < 1 µg/mL | 3.26 µg/mL (≈ 7.7 µM) | 18.2 µg/mL (≈ 43 µM) | the lowest | < 1 µg/mL | no hygroscopicity | 0.07% | almost insoluble | –
2 | C[C@@H]1C[C@H](C(=O)Cn2ccc(C#N)n2)[C@@]2(C)CC[C@H]3[C@@H](CC[C@@H]4C[C@](C)(O)CC[C@@H]43)[C@H]12 [Example 40, 1-(2-((3R,5R,8R,9R,10S,13S,14S,15R,17S)-3-Hydroxy-3,13,15-trimethylhexadecahydro-1H-cyclopenta[a]phenanthren-17-yl)-2-oxoethyl)-1H-pyrazole-3-carbonitrile] | – | – | – | – | – | – | – | – | 57 nM
